Reference: patent US7994140B2, “Classes of compounds that interact with GPCRs” (Alchemia Limited, priority 2002, dated 2011)

What was measured:
MC4 = target: T1, MC4 (Homo sapiens, UniProt P32245); experiment: GPCR radioligand binding (RLB) assay, melanocortin MC4, [125I]NDP-αMSH; conditions: 10 micromolar; Example Library 4
T1 construct: purchased Perkin Elmer BioSignal; host or cells: HEK 293
Procedure, shortened: (§1)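 Competition binding against radioligand ([125I]NDP-αMSH for MC4, [125I]SST-14 for SST5) on membranes of HEK 293 cells carrying the human receptor; buffer and incubation time optimized per receptor. Filtration through 0.5% PEI-treated glass fiber, washing, then scintillation counting.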

SST5 = target: T2, SST5 (Homo sapiens, UniProt P35346); experiment: GPCR radioligand binding (RLB) assay, somatostatin SST5, [125I]SST-14; conditions: 10 micromolar; Example Library 4
T2 construct: purchased Perkin Elmer BioSignal; host or cells: HEK 293
T2 sequence (P35346 whole entry): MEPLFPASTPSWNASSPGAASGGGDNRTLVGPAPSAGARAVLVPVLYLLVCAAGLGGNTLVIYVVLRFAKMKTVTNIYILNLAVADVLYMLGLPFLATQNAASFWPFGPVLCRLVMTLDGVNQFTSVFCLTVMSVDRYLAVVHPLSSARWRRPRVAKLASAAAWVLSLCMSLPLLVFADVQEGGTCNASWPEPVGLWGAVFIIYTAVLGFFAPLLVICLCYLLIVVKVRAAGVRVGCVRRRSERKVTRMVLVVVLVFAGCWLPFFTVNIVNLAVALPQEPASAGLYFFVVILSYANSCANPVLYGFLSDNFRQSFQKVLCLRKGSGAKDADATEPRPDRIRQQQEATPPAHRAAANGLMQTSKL
Procedure, shortened: as §1

T1 sequence (P32245 whole entry): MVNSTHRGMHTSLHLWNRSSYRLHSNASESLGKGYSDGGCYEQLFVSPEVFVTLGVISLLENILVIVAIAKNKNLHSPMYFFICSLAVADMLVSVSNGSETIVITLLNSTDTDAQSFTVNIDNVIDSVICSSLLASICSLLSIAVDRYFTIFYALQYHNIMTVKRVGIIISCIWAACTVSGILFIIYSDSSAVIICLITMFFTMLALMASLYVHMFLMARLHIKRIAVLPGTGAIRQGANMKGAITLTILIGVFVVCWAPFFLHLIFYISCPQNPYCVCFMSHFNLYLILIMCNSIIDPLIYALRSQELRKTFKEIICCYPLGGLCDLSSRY

Structure (SMILES)	MC4 inhibition at 10 micromolar (MC4)	SSTS inhibition at 10 micromolar (SST5)
COCC1OC(OCc2ccc(Cl)cc2)C(NC(=O)CNC(=N)N)C(OCc2ccc(Cl)cc2)C1O (stereo not shown) [Compound 243]	+ (Indicates inhibition greater than . . . 50%)	+ (Indicates inhibition greater than . . . 50%)
COCC1OC(OCc2ccc(Cl)cc2)C(NC(=O)CCN)C(OCc2ccc(Cl)cc2)C1O (stereo not shown) [Compound 244]	+ (Indicates inhibition greater than . . . 50%)	+ (Indicates inhibition greater than . . . 50%)
COCC1OC(OCc2ccc(Cl)cc2)C(NC(=O)CCNC(=N)N)C(OCc2ccc(Cl)cc2)C1O (stereo not shown) [Compound 245]	+ (Indicates inhibition greater than . . . 50%)	+ (Indicates inhibition greater than . . . 50%)
COCC1OC(OCc2ccc(Cl)cc2)C(NC(=O)CCCN)C(OCc2ccc(Cl)cc2)C1O (stereo not shown) [Compound 246]	+ (Indicates inhibition greater than . . . 50%)	+ (Indicates inhibition greater than . . . 50%)
COCC1OC(OCc2ccc(Cl)cc2)C(NC(=O)CCCNC(=N)N)C(OCc2ccc(Cl)cc2)C1O (stereo not shown) [Compound 247]	+ (Indicates inhibition greater than . . . 50%)	+ (Indicates inhibition greater than . . . 50%)
COCC1OC(OCc2ccc(Cl)cc2)C(NC(=O)CN)C(OCc2ccc(-c3ccccc3)cc2)C1O (stereo not shown) [Compound 248]	+ (Indicates inhibition greater than . . . 50%)	+ (Indicates inhibition greater than . . . 50%)
COCC1OC(OCc2ccc(Cl)cc2)C(NC(=O)CNC(=N)N)C(OCc2ccc(-c3ccccc3)cc2)C1O (stereo not shown) [Compound 249]	+ (Indicates inhibition greater than . . . 50%)	+ (Indicates inhibition greater than . . . 50%)
COCC1OC(OCc2ccc(Cl)cc2)C(NC(=O)CCN)C(OCc2ccc(-c3ccccc3)cc2)C1O (stereo not shown) [Compound 250]	+ (Indicates inhibition greater than . . . 50%)	+ (Indicates inhibition greater than . . . 50%)
COCC1OC(OCc2ccc(Cl)cc2)C(NC(=O)CCNC(=N)N)C(OCc2ccc(-c3ccccc3)cc2)C1O (stereo not shown) [Compound 251]	+ (Indicates inhibition greater than . . . 50%)	+ (Indicates inhibition greater than . . . 50%)
COCC1OC(OCc2ccc(Cl)cc2)C(NC(=O)CCCN)C(OCc2ccc(-c3ccccc3)cc2)C1O (stereo not shown) [Compound 252]	+ (Indicates inhibition greater than . . . 50%)	+ (Indicates inhibition greater than . . . 50%)
COCC1OC(OCc2ccc(Cl)cc2)C(NC(=O)CCCNC(=N)N)C(OCc2ccc(-c3ccccc3)cc2)C1O (stereo not shown) [Compound 253]	+ (Indicates inhibition greater than . . . 50%)	+ (Indicates inhibition greater than . . . 50%)
COCC1OC(OCc2ccc(Cl)cc2)C(NC(=O)CN)C(OCc2ccc3ccccc3c2)C1O (stereo not shown) [Compound 254]	+ (Indicates inhibition greater than . . . 50%)	+ (Indicates inhibition greater than . . . 50%)
COCC1OC(OCc2ccc(Cl)cc2)C(NC(=O)CNC(=N)N)C(OCc2ccc3ccccc3c2)C1O (stereo not shown) [Compound 255]	+ (Indicates inhibition greater than . . . 50%)	+ (Indicates inhibition greater than . . . 50%)
COCC1OC(OCc2ccc(Cl)cc2)C(NC(=O)CCN)C(OCc2ccc3ccccc3c2)C1O (stereo not shown) [Compound 256]	+ (Indicates inhibition greater than . . . 50%)	+ (Indicates inhibition greater than . . . 50%)
